Data taken from ChEMBL document CHEMBL3885881, “DrugMatrix”.

Organism: Rattus norvegicus
Assay: DrugMatrix - Regimen: Daily Repeat
Format: toxicity, organism-based, Sprague-Dawley
Parameters: regimen Daily Repeat, gender Male, age 6-8 weeks
Conditions: in vivo, po, route oral GAVAGE, […]; for ABSOLUTE BASOPHIL / ABSOLUTE EOSINOPHIL / ABSOLUTE LYMPHOCYTE / ABSOLUTE MONOCYTE / ABSOLUTE SEGMENTED NEUTROPHIL / BASOPHIL / EOSINOPHIL / ERYTHROCYTE COUNT / HEMATOCRIT / HEMOGLOBIN / LEUKOCYTE COUNT / LYMPHOCYTE / MEAN CORPUSCULAR HEMOGLOBIN / MEAN CORPUSCULAR HEMOGLOBIN CONCENTRATION / MEAN CORPUSCULAR VOLUME / MONOCYTE / NEUTROPHIL / NUCLEATED RED BLOOD CELLS / PLATELET COUNT: tissue Blood; for ALANINE AMINOTRANSFERASE / ALBUMIN / ALKALINE PHOSPHATASE / ASPARTATE AMINOTRANSFERASE / BLOOD UREA NITROGEN / CARBON DIOXIDE / CHLORIDE / CHOLESTEROL / CREATINE PHOSPHOKINASE / CREATININE / GLUCOSE / LACTATE DEHYDROGENASE / LIPASE / PHOSPHORUS / POTASSIUM / SODIUM / TOTAL BILIRUBIN / TOTAL PROTEIN / URIC ACID: tissue Plasma
[1] = 40 mg/kg, 72 h, dose level Low, time 3 day
[2] = 40 mg/kg, 120 h, dose level Low, time 5 day
[3] = 444 mg/kg, 72 h, dose level High, time 3 day
[4] = 444 mg/kg, 120 h, dose level High, time 5 day

SMILES: COC(=O)c1ccccc1O [METHYL SALICYLATE]
- ABSOLUTE BASOPHIL [1]: 0 CELLS/uL
- ABSOLUTE EOSINOPHIL [1]: 96.67 CELLS/uL
- ABSOLUTE LYMPHOCYTE [1]: 12979.67 CELLS/uL
- ABSOLUTE MONOCYTE [1]: 290.67 CELLS/uL
- ABSOLUTE SEGMENTED NEUTROPHIL [1]: 1366.33 CELLS/uL
- BASOPHIL [1]: 0%
- EOSINOPHIL [1]: 0.67%
- ERYTHROCYTE COUNT [1]: 5.47 x10E6/uL
- HEMATOCRIT [1]: 34.27%
- HEMOGLOBIN [1]: 13.3 G/DL
- LEUKOCYTE COUNT [1]: 14.73 x10E3/uL
- LYMPHOCYTE [1]: 88%
- MEAN CORPUSCULAR HEMOGLOBIN [1]: 24.33 pg
- MEAN CORPUSCULAR HEMOGLOBIN CONCENTRATION [1]: 38.83 G/DL
- MEAN CORPUSCULAR VOLUME [1]: 62.67 fL
- MONOCYTE [1]: 2%
- NEUTROPHIL [1]: 9.33%
- NUCLEATED RED BLOOD CELLS [1]: 0 /100WBC
- PLATELET COUNT [1]: 1233.67 x10E3/uL
- ALANINE AMINOTRANSFERASE [1]: 69.33 u/L
- ALBUMIN [1]: 3.93 G/DL
- ALKALINE PHOSPHATASE [1]: 411 u/L
- ASPARTATE AMINOTRANSFERASE [1]: 90 u/L
- BLOOD UREA NITROGEN [1]: 10.67 mg/dL
- CARBON DIOXIDE [1]: 25 mmol/L
- CHLORIDE [1]: 101 MEQ/L
- CHOLESTEROL [1]: 68 mg/dL
- CREATINE PHOSPHOKINASE [1]: 276 u/L
- CREATININE [1]: 0.17 mg/dL
- GLUCOSE [1]: 149.67 mg/dL
- LACTATE DEHYDROGENASE [1]: 146.67 u/L
- LIPASE [1]: 12 u/L
- PHOSPHORUS [1]: 11.03 mg/dL
- POTASSIUM [1]: 6.55 MEQ/L
- SODIUM [1]: 142.03 MEQ/L
- TOTAL BILIRUBIN [1]: 0.2 mg/dL
- TOTAL PROTEIN [1]: 5.6 G/DL
- URIC ACID [1]: 1.37 mg/dL
- ABSOLUTE BASOPHIL [2]: 0 CELLS/uL
- ABSOLUTE EOSINOPHIL [2]: 46 CELLS/uL
- ABSOLUTE LYMPHOCYTE [2]: 12546.67 CELLS/uL
- ABSOLUTE MONOCYTE [2]: 258.67 CELLS/uL
- ABSOLUTE SEGMENTED NEUTROPHIL [2]: 1848.67 CELLS/uL
- BASOPHIL [2]: 0%
- EOSINOPHIL [2]: 0.33%
- ERYTHROCYTE COUNT [2]: 5.18 x10E6/uL
- HEMATOCRIT [2]: 34.3%
- HEMOGLOBIN [2]: 13.77 G/DL
- LEUKOCYTE COUNT [2]: 14.7 x10E3/uL
- LYMPHOCYTE [2]: 85.67%
- MEAN CORPUSCULAR HEMOGLOBIN [2]: 26.7 pg
- MEAN CORPUSCULAR HEMOGLOBIN CONCENTRATION [2]: 40.13 G/DL
- MEAN CORPUSCULAR VOLUME [2]: 66.53 fL
- MONOCYTE [2]: 1.67%
- NEUTROPHIL [2]: 12.33%
- NUCLEATED RED BLOOD CELLS [2]: 0 /100WBC
- PLATELET COUNT [2]: 1368.67 x10E3/uL
- ALANINE AMINOTRANSFERASE [2]: 59 u/L
- ALBUMIN [2]: 4.17 G/DL
- ALKALINE PHOSPHATASE [2]: 468.33 u/L
- ASPARTATE AMINOTRANSFERASE [2]: 97.67 u/L
- BLOOD UREA NITROGEN [2]: 11 mg/dL
- CARBON DIOXIDE [2]: 34.67 mmol/L
- CHLORIDE [2]: 100.67 MEQ/L
- CHOLESTEROL [2]: 60.33 mg/dL
- CREATINE PHOSPHOKINASE [2]: 364.67 u/L
- CREATININE [2]: 0.16 mg/dL
- GLUCOSE [2]: 144 mg/dL
- LACTATE DEHYDROGENASE [2]: 490.67 u/L
- LIPASE [2]: 11 u/L
- PHOSPHORUS [2]: 10.47 mg/dL
- POTASSIUM [2]: 6.4 MEQ/L
- SODIUM [2]: 143.33 MEQ/L
- TOTAL BILIRUBIN [2]: 0.2 mg/dL
- TOTAL PROTEIN [2]: 5.73 G/DL
- URIC ACID [2]: 1.43 mg/dL
- ABSOLUTE BASOPHIL [3]: 0 CELLS/uL
- ABSOLUTE EOSINOPHIL [3]: 0 CELLS/uL
- ABSOLUTE LYMPHOCYTE [3]: 15083 CELLS/uL
- ABSOLUTE MONOCYTE [3]: 294 CELLS/uL
- ABSOLUTE SEGMENTED NEUTROPHIL [3]: 1723 CELLS/uL
- BASOPHIL [3]: 0%
- EOSINOPHIL [3]: 0%
- ERYTHROCYTE COUNT [3]: 6.27 x10E6/uL
- HEMATOCRIT [3]: 39.33%
- HEMOGLOBIN [3]: 15.27 G/DL
- LEUKOCYTE COUNT [3]: 17.1 x10E3/uL
- LYMPHOCYTE [3]: 88.33%
- MEAN CORPUSCULAR HEMOGLOBIN [3]: 24.37 pg
- MEAN CORPUSCULAR HEMOGLOBIN CONCENTRATION [3]: 38.83 G/DL
- MEAN CORPUSCULAR VOLUME [3]: 62.8 fL
- MONOCYTE [3]: 1.67%
- NEUTROPHIL [3]: 10%
- NUCLEATED RED BLOOD CELLS [3]: 0 /100WBC
- PLATELET COUNT [3]: 1017 x10E3/uL
- ALANINE AMINOTRANSFERASE [3]: 109 u/L
- ALBUMIN [3]: 4.4 G/DL
- ALKALINE PHOSPHATASE [3]: 443.33 u/L
- ASPARTATE AMINOTRANSFERASE [3]: 121 u/L
- BLOOD UREA NITROGEN [3]: 11.33 mg/dL
- CARBON DIOXIDE [3]: 27.67 mmol/L
- CHLORIDE [3]: 99.33 MEQ/L
- CHOLESTEROL [3]: 62.33 mg/dL
- CREATINE PHOSPHOKINASE [3]: 782 u/L
- CREATININE [3]: 0.19 mg/dL
- GLUCOSE [3]: 148.33 mg/dL
- LACTATE DEHYDROGENASE [3]: 151.33 u/L
- LIPASE [3]: 11.67 u/L
- PHOSPHORUS [3]: 13.93 mg/dL
- POTASSIUM [3]: 5.57 MEQ/L
- SODIUM [3]: 143.77 MEQ/L
- TOTAL BILIRUBIN [3]: 0.2 mg/dL
- TOTAL PROTEIN [3]: 5.73 G/DL
- URIC ACID [3]: 1 mg/dL
- ABSOLUTE BASOPHIL [4]: 0 CELLS/uL
- ABSOLUTE EOSINOPHIL [4]: 54.67 CELLS/uL
- ABSOLUTE LYMPHOCYTE [4]: 13302.33 CELLS/uL
- ABSOLUTE MONOCYTE [4]: 273 CELLS/uL
- ABSOLUTE SEGMENTED NEUTROPHIL [4]: 1603.33 CELLS/uL
- BASOPHIL [4]: 0%
- EOSINOPHIL [4]: 0.33%
- ERYTHROCYTE COUNT [4]: 6.16 x10E6/uL
- HEMATOCRIT [4]: 38.17%
- HEMOGLOBIN [4]: 14.63 G/DL
- LEUKOCYTE COUNT [4]: 15.23 x10E3/uL
- LYMPHOCYTE [4]: 87.67%
- MEAN CORPUSCULAR HEMOGLOBIN [4]: 23.73 pg
- MEAN CORPUSCULAR HEMOGLOBIN CONCENTRATION [4]: 38.4 G/DL
- MEAN CORPUSCULAR VOLUME [4]: 61.93 fL
- MONOCYTE [4]: 2%
- NEUTROPHIL [4]: 10%
- NUCLEATED RED BLOOD CELLS [4]: 0.33 /100WBC
- PLATELET COUNT [4]: 914.67 x10E3/uL
- ALANINE AMINOTRANSFERASE [4]: 125.67 u/L
- ALBUMIN [4]: 4.53 G/DL
- ALKALINE PHOSPHATASE [4]: 515 u/L
- ASPARTATE AMINOTRANSFERASE [4]: 127.67 u/L
- BLOOD UREA NITROGEN [4]: 18.67 mg/dL
- CARBON DIOXIDE [4]: 29 mmol/L
- CHLORIDE [4]: 103 MEQ/L
- CHOLESTEROL [4]: 65.33 mg/dL
- CREATINE PHOSPHOKINASE [4]: 548 u/L
- CREATININE [4]: 0.23 mg/dL
- GLUCOSE [4]: 140.67 mg/dL
- LACTATE DEHYDROGENASE [4]: 324.33 u/L
- LIPASE [4]: 11 u/L
- PHOSPHORUS [4]: 13.1 mg/dL
- POTASSIUM [4]: 5.71 MEQ/L
- SODIUM [4]: 146.3 MEQ/L
- TOTAL BILIRUBIN [4]: 0.27 mg/dL
- TOTAL PROTEIN [4]: 5.97 G/DL
- URIC ACID [4]: 0.9 mg/dL
